Experimental data published in article PMC7277860, “Viridistratins A−C, Antimicrobial and Cytotoxic Benzo[j]fluoranthenes from Stromata of Annulohypoxylon viridistratum (Hypoxylaceae, Ascomycota)” (Biomolecules, 2020).
Like-named read-outs stand apart in the source and are kept apart here.

What was measured:
Cytotoxicity assay (MTT) [1] = format: cell-based; details: for IC50: 5 days
Experimental: (§1) Compounds 1−5 were dissolved as described in the previous section. The cytotoxicity assay was initially performed against the cell lines L929 (mouse fibroblasts), as well as KB 3.1 (human papillomavirus-related endocervical adenocarcinoma), as described previously. A detailed protocol, as well as sources of the cell lines, is given in the Supporting Information.
(§2) After incubating the cell lines with a serial dilution of the test compounds (final range: 37 to 0.6 × 10^−3 µg/mL) for five days, the cells were dyed using 3-(4,5-dimethyl-2-thiazolyl)-2,5-diphenyl-2H-tetrazolium bromide (MTT), which is only converted to its purple formazan derivative by living cells. Then, the intensity of the purple derivative in relation to cells without additive (set to 100% viability) for each concentration of a test compound was quantified. For this, the absorption at 595 nm was measured using a microplate reader to calculate the percentage of cell viability. From this, the half-maximum inhibitory concentration (IC50, in µM) was calculated.
(§3) Protocol: Cytotoxicity Assay
(§4) The ass ay w as co nducted i n 9 6-well flat-bottom mi crotiter plates using the parameters summarised i n Tabl e S 2 and as described in [S2].
(§5) Cell lines L929 and KB 3.1 were incubated at 37 °C under 10 % CO2 in Gibco™ DMEM medium (Thermo Fisher Scientific, Waltham, MA, USA) supplemented with 10 % FBS. A microtiter plate was filled with 120 µL of this suspension (50,000/mL) in each well.
(§6) Seperately, another microtiter plate was filled with 100 µL of growth medium in each well. Then, 50 µL of the test compound sol utions (1 mg/mL) were given to wells of the first column in two replicates (one compound per row). C ell s wi thout addi ti ves, Me O H, and MeOH: DMSO 9+1 were used as negative controls. Starting from the first column, 50 µL of the solutions were gradually transferred to the ne xt col umn, the conte nts thoroughl y mi xed, and 50 µ L transferred to the following column. This created a serial dilution of the test compounds r anging from 333 µg/mL to 1.9 ×10−3 µg/mL. The remai ni ng 50 µL after column twelve were discarded. From this microtiter plate, 60 µL of the sol utions from 111 µg/ mL to 1.9×10−3 µg/mL were given to the first plate containing 120 µL of the cel l suspens i ons (i.e. the hi ghest concentrati on 333 µg/mL was not used). T his resulted i n fi nal compound concent rati ons rangi ng from […]
(§7) After 5 days of incubation under the aforeme ntioned i ncubati on condi ti ons, the half maximum inhibitory concentrati ons (IC 50) were determined using a colorimetric tetrazolium dye MTT assay [S3].
(§8) For this, 20 µL of a 5 mg/mL solution of 3-( 4 ,5 -dimethyl-2-thi azo l yl)-2 ,5 -di phenyl -2H-tetrazolium bromide (MTT) w ere added to each well and incubated for two hours at 37 °C. Then, the microtiter plate was centrifuged (3,000 r p m, 5 mi n) and the supernat ant remo ved by ho l di ng the pl ate upsi de-do wn and gentle shaking. Afterwards, the wells were washed using 100 µL of phosph ate buffered saline (PBS).
(§9) The plate was again centrifuged and the supernatant removed as described before. Then, 100 µL of an isopropanol:HCl solution (1L i sopropanol+4 mL HCl 37 % w/v) were added to the wells. After i ncubati ng fo r 10 mi n at ambi ent te mperature, the a bso r pti o n of the well s at 595 nm was measured wi th an I nfi ni te ® 200 Pro microplate reader (TECAN, Männedorf, Schweiz).
(§10) The absorption values of the cells without additives were averaged and set to 100 % cell viability.
(§11) Then, t he me ans of absorption of the two compound replicates were set in relation to the blank media.
(§12) These percentage values were plotted a gainst the concentration range (37 µg/mL to 0.6×10 −3 µg/mL).
(§13) The IC50 val ue w as read from the plot ( i n µg/mL) and the uni ts conversed to µM.
(§14) If effects were observed wi th cell lines L929 and KB 3.1 (IC50 < 50 µM), the other cell lines were tested using the same protocol.
(§15) Table S2: Cytotoxicity assay experiment parameters cell line type No. growth medium […]

Cytotoxicity assay (MTT) [2] = format: cell-based, human; details: for IC50: 5 days
Experimental: as §1, §2
If an inhibition of cell viability with an IC50 < 50 µM was observed, further cell lines were subjected to the test compounds: PC-3 (human prostate adenocarcinoma), SK-OV-3 (human ovary adenocarcinoma), MCF-7 (human breast adenocarcinoma), A431 (human squamous carcinoma) and A549 (human lung carcinoma).
as §3, §4, §5, §6, §7, §8, §9, §10, §11
These percentage values were plotted a gainst the concentration range (37 µg/mL to 0.6×10 −3 µg/mL). […]

L929 (mouse fibroblasts) = experiment: Cytotoxicity assay (MTT); format: cell-based; details: 5 days
Experimental: as §1, §2, §3, §4, §5, §6, §7, §8, §9, §10, §11, §12, §13, §14, §15

[3] = human, KB 3.1 human endocervical adenocarcinoma cells
[4] = mouse, L929 mouse fibroblast cells, L929 mouse fibroblasts
[5] = A431 human squamous carcinoma cells, A431 human squamous AC
[6] = A549 human lung carcinoma cells, A549 human lung carcinoma
[7] = MCF-7 human breast adenocarcinoma cells, MCF-7 human breast AC
[8] = PC-3 human prostate adenocarcinoma cells, PC-3 human prostate AC
[9] = SK-OV-3 human ovary adenocarcinoma cells, SK-OV-3 human ovary AC

Structure (SMILES) | IC50 at 5 days (Cytotoxicity assay (MTT) [1]; [3]) [µM] | IC50 at 5 days (Cytotoxicity assay (MTT) [1]; [4]) [µM] | IC50 at 5 days (Cytotoxicity assay (MTT) [2]; [5]) [µM] | IC50 at 5 days (Cytotoxicity assay (MTT) [2]; [6]) [µM] | IC50 at 5 days (Cytotoxicity assay (MTT) [2]; [7]) [µM] | IC50 at 5 days (Cytotoxicity assay (MTT) [2]; [8]) [µM] | IC50 at 5 days (Cytotoxicity assay (MTT) [2]; [9]) [µM] | IC50 (Cytotoxicity assay (MTT) [1]; KB 3.1 human endocervical adenocarcinoma) [µM] | IC50 (Cytotoxicity assay (MTT) [1]; L929 mouse fibroblasts) [µM] | IC50 (L929 (mouse fibroblasts); 120 h, value in µg/mL, read-out: half-maximum inhibitory concentration (IC50)) [µg/mL] | IC50 (Cytotoxicity assay (MTT) [2]; A431 human squamous AC) [µM] | IC50 (Cytotoxicity assay (MTT) [2]; A549 human lung carcinoma) [µM] | IC50 (Cytotoxicity assay (MTT) [2]; MCF-7 human breast AC) [µM] | IC50 (Cytotoxicity assay (MTT) [2]; PC-3 human prostate AC) [µM] | IC50 (Cytotoxicity assay (MTT) [2]; SK-OV-3 human ovary AC) [µM] | IC50 (L929 (mouse fibroblasts); Mus musculus, L929, 120 h, value in µg/mL, read-out: half-maximum inhibitory concentration (IC50)) [µg/mL] | IC50 (L929 (mouse fibroblasts); read-out: Cytotoxicity (IC50)) [µM]
COc1cccc2c3c(ccc12)-c1ccc(O)c2c(O)ccc-3c12 [Compound 2, viridistratin B] | 17.2 | 17.2 | 1.1 | 1.4 | 5.1 | 9.9 | 7.3 | – | – | – | – | – | – | – | – | – | –
O=C1CCC(=O)c2c1c(O)cc1c2-c2ccc(O)c3c(O)ccc-1c23 [Compound 5, truncatone C] | 30.1 | 16.3 | 16.3 | 27.1 | 7.8 | 25.6 | 33.1 | – | – | – | – | – | – | – | – | – | –
O=C1C[C@H]2C(=C3CCC(=O)c4c(O)ccc2c43)c2cccc(O)c21 [Compound 4, truncatone A] | – | – | – | – | – | – | – | 44 | 10.4 | 3.3 | 5.7 | 17 | 8.8 | 44 | 66 | – | –
Oc1cccc2c3c(ccc12)-c1ccc(O)c2c(O)ccc-3c12 [Compound 1, viridistratin A] | 28.3 | 12.7 | 8.7 | 20 | 9.7 | 23.7 | 56.7 | – | – | – | – | – | – | – | – | 8.5 | –
COc1cccc2c3c(ccc12)-c1ccc(O)c2c(OC)ccc-3c12 [Compound 3, viridistratin C] | > 50 | > 50 | – | – | – | – | – | – | – | – | – | – | – | – | – | – | 61
